Assay results taken from US20110039721A1, “METHOD FOR PREDICTION ABOUT CARCINOGENICITY OF SUBSTANCE IN RODENT” (Chemicals Evaluation and Research Institute, priority 2007, published 2011).

Key:
[1] = system: mRNA expressed from the genes (A) to (D) in rat liver; assay: Behavior of genes (mRNA expression level, oligo-DNA microarray) in rat liver after 28-day oral administration; assay type: in vivo; settings: for Behavior of gene caused by administration of chemical substance, Gene No. 4846 / Behavior of gene caused by administration of chemical substance, Gene No. 2026 / Behavior of gene caused by administration of chemical substance, Gene No. 4218 / Behavior of gene caused by administration of chemical substance, Gene No. 6182 / Behavior of gene caused by administration of chemical substance, Gene No. 5600: gene group (A); for Behavior of gene caused by administration of chemical substance, Gene No. 4846: Unigene No. Rn.144554; for Behavior of gene caused by administration of chemical substance, Gene No. 2026 / Behavior of gene caused by administration of chemical substance, Gene No. 4218: Unigene No. Rn.167075; for Behavior of gene caused by administration of chemical substance, Gene No. 6182: Unigene No. Rn.5834; for Behavior of gene caused by administration of chemical substance, Gene No. 5600: Unigene No. Rn.9836; for Behavior of gene caused by administration of chemical substance, Gene No. 1494 / Behavior of gene caused by administration of chemical substance, Gene No. 2045 / Behavior of gene caused by administration of chemical substance, Gene No. 2203: gene group (B); for Behavior of gene caused by administration of chemical substance, Gene No. 1494: Unigene No. Rn.1430; for Behavior of gene caused by administration of chemical substance, Gene No. 2045: Unigene No. Rn.19329; for Behavior of gene caused by administration of chemical substance, Gene No. 2203: Unigene No. Rn.21240; for Behavior of gene caused by administration of chemical substance, Gene No. 533 / Behavior of gene caused by administration of chemical substance, Gene No. 725 / Behavior of gene caused by administration of chemical substance, Gene No. 1163 / Behavior of gene caused by administration of chemical substance, Gene No. 4973 / Behavior of gene caused by administration of chemical substance, Gene No. 4095 / Behavior of gene caused by administration of chemical substance, Gene No. 1334 / Behavior of gene caused by administration of chemical substance, Gene No. 6620 / Behavior of gene caused by administration of chemical substance, Gene No. 6303 / Behavior of gene caused by administration of chemical substance, Gene No. 5878 / Behavior of gene caused by administration of chemical substance, Gene No. 1131 / Behavior of gene caused by administration of chemical substance, Gene No. 1562 / Behavior of gene caused by administration of chemical substance, Gene No. 1741 / Behavior of gene caused by administration of chemical substance, Gene No. 893 / Behavior of gene caused by administration of chemical substance, Gene No. 6026 / Behavior of gene caused by administration of chemical substance, Gene No. 154 / Behavior of gene caused by administration of chemical substance, Gene No. 1993 / Behavior of gene caused by administration of chemical substance, Gene No. 813 / Behavior of gene caused by administration of chemical substance, Gene No. 2494 / Behavior of gene caused by administration of chemical substance, Gene No. 2546 / Behavior of gene caused by administration of chemical substance, Gene No. 3776 / Behavior of gene caused by administration of chemical substance, Gene No. 3929 / Behavior of gene caused by administration of chemical substance, Gene No. 1119 / Behavior of gene caused by administration of chemical substance, Gene No. 6742 / Behavior of gene caused by administration of chemical substance, Gene No. 5634: gene group (C); for Behavior of gene caused by administration of chemical substance, Gene No. 533: Unigene No. Rn.106184; for Behavior of gene caused by administration of chemical substance, Gene No. 725: Unigene No. Rn.108075; for Behavior of gene caused by administration of chemical substance, Gene No. 1163: Unigene No. Rn.11766; for Behavior of gene caused by administration of chemical substance, Gene No. 4973: Unigene No. Rn.118529; for Behavior of gene caused by administration of chemical substance, Gene No. 4095: Unigene No. Rn.119024; for Behavior of gene caused by administration of chemical substance, Gene No. 1334 / Behavior of gene caused by administration of chemical substance, Gene No. 6620: Unigene No. Rn.120914; for Behavior of gene caused by administration of chemical substance, Gene No. 6303: Unigene No. Rn.123063; for Behavior of gene caused by administration of chemical substance, Gene No. 5878: Unigene No. Rn.143213; for Behavior of gene caused by administration of chemical substance, Gene No. 1131: Unigene No. Rn.144946; for Behavior of gene caused by administration of chemical substance, Gene No. 1562: Unigene No. Rn.14744; for Behavior of gene caused by administration of chemical substance, Gene No. 1741: Unigene No. Rn.1647; for Behavior of gene caused by administration of chemical substance, Gene No. 893: Unigene No. Rn.164817; for Behavior of gene caused by administration of chemical substance, Gene No. 6026: Unigene No. Rn.167685; for Behavior of gene caused by administration of chemical substance, Gene No. 154: Unigene No. Rn.185941; for Behavior of gene caused by administration of chemical substance, Gene No. 1993: Unigene No. Rn.18728; for Behavior of gene caused by administration of chemical substance, Gene No. 813: Unigene No. Rn.201760; for Behavior of gene caused by administration of chemical substance, Gene No. 2494: Unigene No. Rn.23969; for Behavior of gene caused by administration of chemical substance, Gene No. 2546: Unigene No. Rn.24561; for Behavior of gene caused by administration of chemical substance, Gene No. 3776: Unigene No. Rn.43232; for Behavior of gene caused by administration of chemical substance, Gene No. 3929: Unigene No. Rn.4620; for Behavior of gene caused by administration of chemical substance, Gene No. 1119: Unigene No. Rn.9757; for Behavior of gene caused by administration of chemical substance, Gene No. 6742: Unigene No. Rn.9779; for Behavior of gene caused by administration of chemical substance, Gene No. 5634: Unigene No. Rn.9862; for Behavior of gene caused by administration of chemical substance, Gene No. 5726: gene group (D), Unigene No. Rn.9939
Outline: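 Male F344 SPF rats, 5 weeks old, four per group, dosed by oral gavage once daily for 28 days with test chemical or matched-volume solvent. Liver total RNA profiled on oligo-DNA microarray. Change ≥1.5-fold or ≤1/1.5 versus vehicle counted as significant if its direction matched that seen with other carcinogens.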

liver = settings: classification of the substance (Cr+/Cr−); cited from earlier work
rodent = settings: classification of the substance (C+/C−); cited from earlier work
[2] = classification of the substance (M+/M−); cited from earlier work

Clc1ccc(Cl)cc1 [TS026, 1,4-Dichlorobenzene]
−: Behavior of gene caused by administration of chemical substance, Gene No. 4846 ([1]; mRNA vs vehicle control group) | Behavior of gene caused by administration of chemical substance, Gene No. 2026 ([1]; mRNA vs vehicle control group) | Behavior of gene caused by administration of chemical substance, Gene No. 4218 ([1]; mRNA vs vehicle control group) | Behavior of gene caused by administration of chemical substance, Gene No. 6182 ([1]; mRNA vs vehicle control group) | Behavior of gene caused by administration of chemical substance, Gene No. 5600 ([1]; mRNA vs vehicle control group) | Behavior of gene caused by administration of chemical substance, Gene No. 2045 ([1]; mRNA vs vehicle control group) | Behavior of gene caused by administration of chemical substance, Gene No. 2203 ([1]; mRNA vs vehicle control group) | Behavior of gene caused by administration of chemical substance, Gene No. 725 ([1]; mRNA vs vehicle control group) | Behavior of gene caused by administration of chemical substance, Gene No. 1163 ([1]; mRNA vs vehicle control group) | Behavior of gene caused by administration of chemical substance, Gene No. 4973 ([1]; mRNA vs vehicle control group) | Behavior of gene caused by administration of chemical substance, Gene No. 1334 ([1]; mRNA vs vehicle control group) | Behavior of gene caused by administration of chemical substance, Gene No. 6620 ([1]; mRNA vs vehicle control group) | Behavior of gene caused by administration of chemical substance, Gene No. 5878 ([1]; mRNA vs vehicle control group) | Behavior of gene caused by administration of chemical substance, Gene No. 1131 ([1]; mRNA vs vehicle control group) | Behavior of gene caused by administration of chemical substance, Gene No. 1562 ([1]; mRNA vs vehicle control group) | Behavior of gene caused by administration of chemical substance, Gene No. 1741 ([1]; mRNA vs vehicle control group) | Behavior of gene caused by administration of chemical substance, Gene No. 893 ([1]; mRNA vs vehicle control group) | Behavior of gene caused by administration of chemical substance, Gene No. 154 ([1]; mRNA vs vehicle control group) | Behavior of gene caused by administration of chemical substance, Gene No. 1993 ([1]; mRNA vs vehicle control group) | Behavior of gene caused by administration of chemical substance, Gene No. 813 ([1]; mRNA vs vehicle control group) | Behavior of gene caused by administration of chemical substance, Gene No. 2494 ([1]; mRNA vs vehicle control group) | Behavior of gene caused by administration of chemical substance, Gene No. 2546 ([1]; mRNA vs vehicle control group) | Behavior of gene caused by administration of chemical substance, Gene No. 3776 ([1]; mRNA vs vehicle control group) | Behavior of gene caused by administration of chemical substance, Gene No. 3929 ([1]; mRNA vs vehicle control group) | Behavior of gene caused by administration of chemical substance, Gene No. 1119 ([1]; mRNA vs vehicle control group) | Behavior of gene caused by administration of chemical substance, Gene No. 6742 ([1]; mRNA vs vehicle control group) | Behavior of gene caused by administration of chemical substance, Gene No. 5634 ([1]; mRNA vs vehicle control group)
C+: Carcinogenicity (rodent)
Cr−: Liver carcinogenicity (liver)
+: Behavior of gene caused by administration of chemical substance, Gene No. 1494 ([1]; mRNA vs vehicle control group) | Behavior of gene caused by administration of chemical substance, Gene No. 533 ([1]; mRNA vs vehicle control group) | Behavior of gene caused by administration of chemical substance, Gene No. 4095 ([1]; mRNA vs vehicle control group) | Behavior of gene caused by administration of chemical substance, Gene No. 6303 ([1]; mRNA vs vehicle control group) | Behavior of gene caused by administration of chemical substance, Gene No. 6026 ([1]; mRNA vs vehicle control group) | Behavior of gene caused by administration of chemical substance, Gene No. 5726 ([1]; mRNA vs vehicle control group)
M−: Mutagenicity by Ames test [2]

Cl.ClCc1ccccn1 [TS033, 2-Chloromethylpyridine HCl]
M+: Mutagenicity by Ames test [2]
C−: Carcinogenicity (rodent)
Cr−: Liver carcinogenicity (liver)
−: Behavior of gene caused by administration of chemical substance, Gene No. 4846 [1] | Behavior of gene caused by administration of chemical substance, Gene No. 2026 [1] | Behavior of gene caused by administration of chemical substance, Gene No. 4218 [1] | Behavior of gene caused by administration of chemical substance, Gene No. 6182 [1] | Behavior of gene caused by administration of chemical substance, Gene No. 5600 [1] | Behavior of gene caused by administration of chemical substance, Gene No. 1494 [1] | Behavior of gene caused by administration of chemical substance, Gene No. 2045 [1] | Behavior of gene caused by administration of chemical substance, Gene No. 2203 [1] | Behavior of gene caused by administration of chemical substance, Gene No. 533 [1] | Behavior of gene caused by administration of chemical substance, Gene No. 725 [1] | Behavior of gene caused by administration of chemical substance, Gene No. 1163 [1] | Behavior of gene caused by administration of chemical substance, Gene No. 4973 [1] | Behavior of gene caused by administration of chemical substance, Gene No. 4095 [1] | Behavior of gene caused by administration of chemical substance, Gene No. 1334 [1] | Behavior of gene caused by administration of chemical substance, Gene No. 6620 [1] | Behavior of gene caused by administration of chemical substance, Gene No. 6303 [1] | Behavior of gene caused by administration of chemical substance, Gene No. 5878 [1] | Behavior of gene caused by administration of chemical substance, Gene No. 1131 [1] | Behavior of gene caused by administration of chemical substance, Gene No. 1562 [1] | Behavior of gene caused by administration of chemical substance, Gene No. 1741 [1] | Behavior of gene caused by administration of chemical substance, Gene No. 893 [1] | Behavior of gene caused by administration of chemical substance, Gene No. 6026 [1] | Behavior of gene caused by administration of chemical substance, Gene No. 154 [1] | Behavior of gene caused by administration of chemical substance, Gene No. 1993 [1] | Behavior of gene caused by administration of chemical substance, Gene No. 813 [1] | Behavior of gene caused by administration of chemical substance, Gene No. 2494 [1] | Behavior of gene caused by administration of chemical substance, Gene No. 2546 [1] | Behavior of gene caused by administration of chemical substance, Gene No. 3776 [1] | Behavior of gene caused by administration of chemical substance, Gene No. 3929 [1] | Behavior of gene caused by administration of chemical substance, Gene No. 1119 [1] | Behavior of gene caused by administration of chemical substance, Gene No. 6742 [1] | Behavior of gene caused by administration of chemical substance, Gene No. 5634 [1] | Behavior of gene caused by administration of chemical substance, Gene No. 5726 [1]
